Laboratory results from patent US5411985A, “Gamma-pyrone-3-acetic acid as an inhibitor or interleukin-1 β inventory enzyme” (Merck & Co., Inc., priority 1993, dated 1995).

Assays:
[1] = Solubility of isolated material; assay type: physicochemical
Protocol: Compound was isolated further by purification using HPLC. Two mL of filtered solution was passed through a C4 radial compression column (25×100 mm, WATERS ASSOCIATES) and an isocratic flow rate of 10 mL per minute of water was used to elute the active compound. A total of 5 runs were performed with fractions being collected at one minute intervals. The fractions were tested for ICE-activity. The active fractions eluted between 9-10 minutes. The ICE-active-rich cuts from each run were pooled and lyophilized. The resulting material appeared to be an oily brown substance that was soluble in water, methanol, and DMSO. Estimates of 7 mg of compound can be isolated from 300 ml of whole broth.

[2] = molecular target: T1, interleukin-1β converting enzyme (ICE) (Homo sapiens, UniProt P29466); experiment: ICE activity by the procedure of Thornberry et al. (1992); assay type: biochemical
T1 sequence (P29466 120-297 limits assumed): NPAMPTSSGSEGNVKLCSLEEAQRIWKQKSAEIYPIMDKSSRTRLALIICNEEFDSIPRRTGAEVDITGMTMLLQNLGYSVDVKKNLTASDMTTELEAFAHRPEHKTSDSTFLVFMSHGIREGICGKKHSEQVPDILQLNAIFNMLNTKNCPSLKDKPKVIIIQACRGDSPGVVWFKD
T1 sequence (P29466 317-404 limits assumed): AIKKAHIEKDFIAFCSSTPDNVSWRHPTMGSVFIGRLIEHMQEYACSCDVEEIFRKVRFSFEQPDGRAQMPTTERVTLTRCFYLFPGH
Protocol: Assay for assessing the ICE activity of compound of Formula I
Gamma-pyrone-3-acetic acid was assessed for ICE activity by the procedure of Thomberry, et al (1992) Nature Vol. 356 pp 768-774.

O=C(O)Cc1coccc1=O [Gamma-pyrone-3-acetic acid, gamma-pyrone-3-acetic acid]
solubility in DMSO ([1]; DMSO): soluble
solubility in methanol ([1]; methanol): soluble
solubility in water ([1]; water): soluble
IC50 ([2]; pH 6.5 and 1 mM DDT): 1300 nM
IC50 ([2]; pH 7:5 and 1 mM DDT): 4540 nM
